Assay results published in US20250368628A1, “METHODS AND COMPOUNDS FOR MODULATING INHERITED GENETIC DISEASES” (Design Therapeutics, Inc., priority 2022, published 2025).

How the values were obtained:
[1] = tested on: Myotonic Dystrophy 1 affected patient fibroblasts (Coriel GM04602; 1600 CTG repeats); experiment: DM1 foci reduction assay (EC50 assay; CAG10-Cy3 FISH, foci per nucleus); type: cell-based; details: Homo sapiens, Fibroblast; DM1 patient fibroblasts, 48 h treatment, foci per nucleus; read-out: DM1 EC50, 48 h
In short: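 Foci per nucleus counted by 20× imaging of 4 areas per well, after overnight FISH with 5 nM CAG10-Cy3 and DAPI staining of fixed, permeabilized cells. DM1 fibroblasts (GM04602, 1600 CTG) were dosed 48 h at 37 °C, 8 points, 3-fold dilutions, 3 μM top concentration.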

[2] = tested on: F35T cells; experiment: Foci reduction in FECD (CAG10-Cy3 FISH, foci per nucleus); type: cell-based; details: F35T cells, 48 h treatment, foci per nucleus; read-out: FECD EC50, 48 h
Experimental: F35T cells were cultured in media containing Opti-MEM (ThermoFisher) supplemented with 8% FBS, 20 μg/mL ascorbic acid, […] CaCl2, 0.08% chondroitin sulfate, 1×Pen/Strep, 100 μg/mL bovine pituitary extract, 5 ng/mL epidermal growth factor, and 20 ng/mL nerve growth factor. Throughout the culture, cells were maintained in an incubator at 37° C. and 5% CO2. Media was refreshed every 48 hours. Once cells reached adequate confluency, they were harvested and seeded in 96 well plates with a density of 5000 cells per well in 200 μL of the supplemented Opti-MEM media. Cells were returned to the incubator and left to settle for 24 hours at 37° C. and 5% CO2. Cells were then treated in 8-point dose response with compounds or negative controls and incubated for 48 hours at 37° C. and 5% CO2. After treatment, cells were fixed with 4% PFA for 20 minutes at room temperature, followed by permeabilization with 70% ethanol. Cells were incubated at −20° C. for a minimum of 1 hour and maximum of 72 hours, after which the ethanol was removed, and cells were washed with PBS. Cells were rehydrated with 30% formamide and 2×SSC buffer for 10 minutes at room temperature. Cells were then incubated overnight at 37° C. in the hybridization solution containing 30% formamide, 2×SSC, 55 mg/mL dextran sulfate, 2.75 mg/mL bovine serum albumin, 0.2 μg/mL Herring sperm DNA, 1% vanadyl-ribonucleoside complex, and 0.05% 10 μM CAG10-Cy3 probe. Cells were washed twice with 30% formamide in 2×SSC, incubating the cells while shaking with the second wash at 37° C. and 200 rpm for 60 minutes. Cells were stained with 5 mg/mL DAPI 1:1000 in PBS, incubating at room temperature for 5 minutes. Cells were then washed with PBS and sealed with adhesive foil, with each well containing a final volume of 150 μL PBS. Cells were imaged on a Cytation 5 and analyzed on a foci per nucleus basis.

Compound | EC50 [1] [µM] | EC50 [2] [µM]
Cn1cc(NC(=O)c2nc(NC(=O)CCNC(=O)c3cc(NC(=O)c4nccn4C)cn3C)cn2C)cc1C(=O)NCCCC(=O)Nc1cn(C)c(C(=O)NCCC(=O)Nc2cc(C(=O)Nc3cn(C)c(C(=O)NCCC(=O)NCCCCN=[N+]=[N-])n3)n(C)c2)n1 [Compound B-45] | < 0.1 | 0.5 to 1
Cn1cc(NC(=O)c2nc(NC(=O)CCNC(=O)c3cc(NC(=O)c4nccn4C)cn3C)cn2C)cc1C(=O)NCCCC(=O)Nc1cn(C)c(C(=O)NCCC(=O)Nc2cc(C(=O)Nc3cn(C)c(C(=O)NCCC(=O)NC(CO)(CO)CO)n3)n(C)c2)n1 [Compound B-46] | 0.5 to 1 | 0.1 to 0.5
Cn1cc(NC(=O)c2nc(NC(=O)CCNC(=O)c3cc(NC(=O)c4nccn4C)cn3C)cn2C)cc1C(=O)NCCCC(=O)Nc1cn(C)c(C(=O)NCCC(=O)Nc2cc(C(=O)Nc3cn(C)c(C(=O)NCCC(=O)NC(C)(C)C)n3)n(C)c2)n1 [Compound B-47] | 0.1 to 0.5 | 0.1 to 0.5
Cn1cc(NC(=O)c2nc(NC(=O)CCNC(=O)c3cc(NC(=O)c4nccn4C)cn3C)cn2C)cc1C(=O)NCCCC(=O)Nc1cn(C)c(C(=O)NCCC(=O)Nc2cc(C(=O)Nc3cn(C)c(C(=O)NCCC(=O)N4CCOCC4)n3)n(C)c2)n1 [Compound B-48] | 0.1 to 0.5 | 0.1 to 0.5
Cn1cc(NC(=O)c2nc(NC(=O)CCNC(=O)c3cc(NC(=O)c4nccn4C)cn3C)cn2C)cc1C(=O)NCCCC(=O)Nc1cn(C)c(C(=O)NCCC(=O)Nc2cc(C(=O)Nc3cn(C)c(C(=O)NCCC(=O)N4CCNCC4)n3)n(C)c2)n1 [Compound B-49] | 0.1 to 0.5 | 0.1 to 0.5
CCCN(CCC)C(=O)CCNC(=O)c1nc(NC(=O)c2cc(NC(=O)CCNC(=O)c3nc(NC(=O)CCCNC(=O)c4cc(NC(=O)c5nc(NC(=O)CCNC(=O)c6cc(NC(=O)c7nccn7C)cn6C)cn5C)cn4C)cn3C)cn2C)cn1C [Compound B-50] | 0.1 to 0.5 | < 0.1
Cn1cc(NC(=O)c2nc(NC(=O)CCNC(=O)c3cc(NC(=O)c4nccn4C)cn3C)cn2C)cc1C(=O)NCCCC(=O)Nc1cn(C)c(C(=O)NCCC(=O)Nc2cc(C(=O)Nc3cn(C)c(C(=O)NCCC(=O)NCCCO)n3)n(C)c2)n1 [Compound B-52] | < 0.1 | < 0.1
CCCNC(=O)CCNC(=O)c1nc(NC(=O)c2cc(NC(=O)CCNC(=O)c3nc(NC(=O)CCCNC(=O)c4cc(NC(=O)c5nc(NC(=O)CCNC(=O)c6cc(NC(=O)c7nccn7C)cn6C)cn5C)cn4C)cn3C)cn2CCCCCCN)cn1C [Compound B-57] | 0.1 to 0.5 | 0.5 to 1
CCCNC(=O)CCNC(=O)c1nc(NC(=O)c2cc(NC(=O)CCNC(=O)c3nc(NC(=O)CCCNC(=O)c4cc(NC(=O)c5nc(NC(=O)CCNC(=O)c6cc(NC(=O)c7nccn7C)cn6C)cn5C)cn4CCCCCCN=[N+]=[N-])cn3C)cn2C)cn1C [Compound B-58] | < 0.1 | < 0.1
CCCNC(=O)CCNC(=O)c1nc(NC(=O)c2cc(NC(=O)CCNC(=O)c3nc(NC(=O)CCCNC(=O)c4cc(NC(=O)c5nc(NC(=O)CCNC(=O)c6cc(NC(=O)c7nccn7C)cn6C)cn5C)cn4CCCCCCN)cn3C)cn2C)cn1C [Compound B-59] | 0.1 to 0.5 | 0.1 to 0.5
CCCNC(=O)CCNC(=O)c1nc(NC(=O)c2cc(NC(=O)CCNC(=O)c3nc(NC(=O)CCCNC(=O)c4cc(NC(=O)c5nc(NC(=O)CCNC(=O)c6cc(NC(=O)c7nccn7C)cn6C)cn5C)cn4C)cn3C)c[nH]2)cn1C [Compound B-63] | 0.1 to 0.5 | 0.1 to 0.5
Cn1cc(NC(=O)c2nc(NC(=O)CCNC(=O)c3cc(NC(=O)c4nccn4C)cn3C)cn2C)cc1C(=O)NCCCC(=O)Nc1cn(C)c(C(=O)NCCC(=O)Nc2cc(C(=O)Nc3cn(C)c(C(=O)NCCC(=O)N4CC(c5cnc(CNC(=O)OCc6ccccc6)[nH]5)C4)n3)n(C)c2)n1 [Compound B-68] | 0.1 to 0.5 | 0.1 to 0.5
CN(C)Cc1ncc(C2CN(C(=O)CCNC(=O)c3nc(NC(=O)c4cc(NC(=O)CCNC(=O)c5nc(NC(=O)CCCNC(=O)c6cc(NC(=O)c7nc(NC(=O)CCNC(=O)c8cc(NC(=O)c9nccn9C)cn8C)cn7C)cn6C)cn5C)cn4C)cn3C)C2)[nH]1 [Compound B-69] | 0.1 to 0.5 | 0.1 to 0.5
Cn1cc(NC(=O)c2nc(NC(=O)CCNC(=O)c3cc(NC(=O)c4nccn4C)cn3C)cn2C)cc1C(=O)NCCCC(=O)Nc1cn(C)c(C(=O)NCCC(=O)Nc2cc(C(=O)Nc3cn(C)c(C(=O)NCCC(=O)N4CC(c5cnc(CNC(=O)c6ccc(C(C)(C)C)cc6)[nH]5)C4)n3)n(C)c2)n1 [Compound B-71] | 0.1 to 0.5 | 0.1 to 0.5
CN(C)C(=NCCCNC(=O)CCNC(=O)c1nc(NC(=O)c2cc(NC(=O)CCNC(=O)c3nc(NC(=O)CCCNC(=O)c4cc(NC(=O)c5nc(NC(=O)CCNC(=O)c6cc(NC(=O)c7nccn7C)cn6C)cn5C)cn4C)cn3C)cn2C)cn1C)N(C)C [Compound B-72] | 0.5 to 1 | > 1
Cn1cc(NC(=O)c2nc(NC(=O)CCNC(=O)c3cc(NC(=O)c4nccn4C)cn3C)cn2C)cc1C(=O)NCCCC(=O)Nc1cn(C)c(C(=O)NCCC(=O)Nc2cc(C(=O)Nc3cn(C)c(C(=O)NCCC(=O)OCC(N)(CO)CO)n3)n(C)c2)n1 [Compound B-73] | 0.5 to 1 | > 1
CCCNC(=O)CCNC(=O)c1nc(NC(=O)CCNC(=O)c2cc(NC(=O)c3nc(NC(=O)CCCNC(=O)c4cc(NC(=O)c5nc(NC(=O)CCNC(=O)c6cc(NC(C)c7nccn7C)cn6C)cn5C)cn4C)cn3C)cn2C)cn1C (stereo not shown) [Compound B-74] | > 1 | 0.5 to 1
CC(Nc1cc(C(=O)NCCC(=O)Nc2cn(C)c(C(=O)Nc3cc(C(=O)NCCCC(=O)Nc4cn(C)c(C(=O)Nc5cc(C(=O)NCCC(=O)Nc6cn(C)c(C(=O)NCCC(=O)NCCCCN=[N+]=[N-])n6)n(C)c5)n4)n(C)c3)n2)n(C)c1)c1nccn1C (stereo not shown) [Compound B-75] | 0.5 to 1 | > 1
CC(=O)NCCOCCOCCOCCOCCOCCNC(=O)CCNC(=O)c1nc(NC(=O)c2cc(NC(=O)CCNC(=O)c3nc(NC(=O)CCCNC(=O)c4cc(NC(=O)c5nc(NC(=O)CCNC(=O)c6cc(NC(C)c7nccn7C)cn6C)cn5C)cn4C)cn3C)cn2C)cn1C (stereo not shown) [Compound B-76] | 0.1 to 0.5 | 0.1 to 0.5
CC(Nc1cc(C(=O)NCCC(=O)Nc2cn(C)c(C(=O)Nc3cc(C(=O)NCCCC(=O)Nc4cn(C)c(C(=O)NCCC(=O)Nc5cc(C(=O)Nc6cn(C)c(C(=O)NCCC(=O)NCCOCCOCCOCCOCCOCCN)n6)n(C)c5)n4)n(C)c3)n2)n(C)c1)c1nccn1C (stereo not shown) [Compound B-77] | 0.1 to 0.5 | 0.1 to 0.5
COCCOCCOCCOCCOCCOCCNC(=O)CCNC(=O)c1nc(NC(=O)c2cc(NC(=O)CCNC(=O)c3nc(NC(=O)CCCNC(=O)c4cc(NC(=O)c5nc(NC(=O)CCNC(=O)c6cc(NC(C)c7nccn7C)cn6C)cn5C)cn4C)cn3C)cn2C)cn1C (stereo not shown) [Compound B-78] | 0.1 to 0.5 | 0.1 to 0.5
COCCOCCOCCOCCN(CCOCCOCCOCCOC)C(=O)CCNC(=O)c1nc(NC(=O)c2cc(NC(=O)CCNC(=O)c3nc(NC(=O)CCCNC(=O)c4cc(NC(=O)c5nc(NC(=O)CCNC(=O)c6cc(NC(C)c7nccn7C)cn6C)cn5C)cn4C)cn3C)cn2C)cn1C (stereo not shown) [Compound B-79] | 0.1 to 0.5 | > 1
CC(Nc1cc(C(=O)NCCC(=O)Nc2cn(C)c(C(=O)Nc3cc(C(=O)NCCCC(=O)Nc4cn(C)c(C(=O)NCCC(=O)Nc5cc(C(=O)Nc6cn(C)c(C(=O)NCCC(=O)NCCOCCOCCOCCOCCOCCOCCOCCOCCOCCOCCN)n6)n(C)c5)n4)n(C)c3)n2)n(C)c1)c1nccn1C (stereo not shown) [Compound B-81] | > 1 | > 1
CC(=O)NCCOCCOCCOCCOCCOCCOCCOCCOCCOCCOCCNC(=O)CCNC(=O)c1nc(NC(=O)c2cc(NC(=O)CCNC(=O)c3nc(NC(=O)CCCNC(=O)c4cc(NC(=O)c5nc(NC(=O)CCNC(=O)c6cc(NC(C)c7nccn7C)cn6C)cn5C)cn4C)cn3C)cn2C)cn1C (stereo not shown) [Compound B-82] | 0.1 to 0.5 | 0.1 to 0.5
CCN(CC)CCCC[C@H](NC(=O)C(C)(C)C)C(=O)NCCOCCOCCOCCOCCOCCNC(=O)CCNC(=O)c1nc(NC(=O)c2cc(NC(=O)CCNC(=O)c3nc(NC(=O)CCCNC(=O)c4cc(NC(=O)c5nc(NC(=O)CCNC(=O)c6cc(NC(=O)c7nccn7C)cn6C)cn5C)cn4C)cn3C)cn2C)cn1C [Compound B-90] | 0.5 to 1 | > 1
CCN(CC)CCCC[C@H](NC(=O)c1ccc(C(C)(C)C)cc1)C(=O)NCCOCCOCCOCCOCCOCCNC(=O)CCNC(=O)c1nc(NC(=O)c2cc(NC(=O)CCNC(=O)c3nc(NC(=O)CCCNC(=O)c4cc(NC(=O)c5nc(NC(=O)CCNC(=O)c6cc(NC(=O)c7nccn7C)cn6C)cn5C)cn4C)cn3C)cn2C)cn1C [Compound B-92] | 0.1 to 0.5 | 0.5 to 1
